Key:
B-RAF normal type = B-RAF normal type (Homo sapiens (Human), UniProt P15056); assay: RAF kinase activity, Kinase Profiling Service (Invitrogen); type: biochemical
Method: (§1) The levels of enzymatic inhibition of the compounds were calculated as percent inhibition at various concentrations. Based on percent inhibition, dose-response curves were plotted using GraphPad Prism software.

B-RAF^V600E = B-RAF^V600E (Homo sapiens (Human), UniProt P15056, V600E); assay: as above; type: biochemical; conditions: B-RAF V600E mutant; read-out: B-RAFv^600E (IC50)
Chain of B-RAF^V600E (P15056 whole entry V600E): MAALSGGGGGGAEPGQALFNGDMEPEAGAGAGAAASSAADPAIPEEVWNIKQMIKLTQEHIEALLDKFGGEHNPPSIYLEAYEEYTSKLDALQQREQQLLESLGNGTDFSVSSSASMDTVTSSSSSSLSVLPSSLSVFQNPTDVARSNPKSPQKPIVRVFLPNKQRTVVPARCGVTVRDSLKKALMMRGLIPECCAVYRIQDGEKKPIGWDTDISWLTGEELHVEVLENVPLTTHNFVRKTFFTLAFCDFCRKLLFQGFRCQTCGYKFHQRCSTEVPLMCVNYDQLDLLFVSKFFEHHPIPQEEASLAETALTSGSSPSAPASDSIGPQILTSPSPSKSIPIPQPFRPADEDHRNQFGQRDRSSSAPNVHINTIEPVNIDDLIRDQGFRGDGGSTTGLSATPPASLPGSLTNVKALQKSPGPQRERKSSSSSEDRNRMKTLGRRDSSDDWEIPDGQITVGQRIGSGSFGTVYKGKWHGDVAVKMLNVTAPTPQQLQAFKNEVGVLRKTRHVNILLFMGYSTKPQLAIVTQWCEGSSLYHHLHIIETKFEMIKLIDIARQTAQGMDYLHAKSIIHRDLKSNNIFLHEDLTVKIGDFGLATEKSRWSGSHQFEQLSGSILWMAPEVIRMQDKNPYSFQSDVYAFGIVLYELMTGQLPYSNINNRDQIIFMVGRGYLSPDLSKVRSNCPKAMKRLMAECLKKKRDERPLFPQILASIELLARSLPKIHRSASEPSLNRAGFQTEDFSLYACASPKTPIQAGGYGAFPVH
Method: as §1

RAF1 Y340D Y341D (C-RAF) = RAF1 Y340D Y341D (C-RAF) (Homo sapiens (Human), UniProt P04049, Y340D/Y341D); assay: as above; type: biochemical
Chain of RAF1 Y340D Y341D (C-RAF) (P04049 whole entry Y340D/Y341D): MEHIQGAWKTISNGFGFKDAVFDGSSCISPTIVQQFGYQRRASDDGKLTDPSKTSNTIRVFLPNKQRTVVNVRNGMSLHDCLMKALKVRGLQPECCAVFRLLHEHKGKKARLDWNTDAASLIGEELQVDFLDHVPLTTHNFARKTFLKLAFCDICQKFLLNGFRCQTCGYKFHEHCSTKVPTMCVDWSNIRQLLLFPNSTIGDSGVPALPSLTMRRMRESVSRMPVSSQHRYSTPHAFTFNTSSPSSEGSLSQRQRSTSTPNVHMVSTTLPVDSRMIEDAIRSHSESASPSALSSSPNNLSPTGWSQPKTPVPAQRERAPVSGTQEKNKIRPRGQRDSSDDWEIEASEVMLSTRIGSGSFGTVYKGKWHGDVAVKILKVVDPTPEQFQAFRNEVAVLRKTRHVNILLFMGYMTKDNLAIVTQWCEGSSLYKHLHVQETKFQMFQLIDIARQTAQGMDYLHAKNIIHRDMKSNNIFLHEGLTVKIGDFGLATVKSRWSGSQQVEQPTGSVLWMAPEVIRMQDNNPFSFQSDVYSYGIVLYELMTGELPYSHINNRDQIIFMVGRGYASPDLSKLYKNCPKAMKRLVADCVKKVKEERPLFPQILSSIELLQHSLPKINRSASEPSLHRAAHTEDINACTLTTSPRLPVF
Method: as §1

FMS = FMS (Homo sapiens (Human), UniProt P07333); assay: FMS kinase activity, Kinase Screening and Profiling Service (Invitrogen); type: biochemical
Chain of FMS (P07333 20-972): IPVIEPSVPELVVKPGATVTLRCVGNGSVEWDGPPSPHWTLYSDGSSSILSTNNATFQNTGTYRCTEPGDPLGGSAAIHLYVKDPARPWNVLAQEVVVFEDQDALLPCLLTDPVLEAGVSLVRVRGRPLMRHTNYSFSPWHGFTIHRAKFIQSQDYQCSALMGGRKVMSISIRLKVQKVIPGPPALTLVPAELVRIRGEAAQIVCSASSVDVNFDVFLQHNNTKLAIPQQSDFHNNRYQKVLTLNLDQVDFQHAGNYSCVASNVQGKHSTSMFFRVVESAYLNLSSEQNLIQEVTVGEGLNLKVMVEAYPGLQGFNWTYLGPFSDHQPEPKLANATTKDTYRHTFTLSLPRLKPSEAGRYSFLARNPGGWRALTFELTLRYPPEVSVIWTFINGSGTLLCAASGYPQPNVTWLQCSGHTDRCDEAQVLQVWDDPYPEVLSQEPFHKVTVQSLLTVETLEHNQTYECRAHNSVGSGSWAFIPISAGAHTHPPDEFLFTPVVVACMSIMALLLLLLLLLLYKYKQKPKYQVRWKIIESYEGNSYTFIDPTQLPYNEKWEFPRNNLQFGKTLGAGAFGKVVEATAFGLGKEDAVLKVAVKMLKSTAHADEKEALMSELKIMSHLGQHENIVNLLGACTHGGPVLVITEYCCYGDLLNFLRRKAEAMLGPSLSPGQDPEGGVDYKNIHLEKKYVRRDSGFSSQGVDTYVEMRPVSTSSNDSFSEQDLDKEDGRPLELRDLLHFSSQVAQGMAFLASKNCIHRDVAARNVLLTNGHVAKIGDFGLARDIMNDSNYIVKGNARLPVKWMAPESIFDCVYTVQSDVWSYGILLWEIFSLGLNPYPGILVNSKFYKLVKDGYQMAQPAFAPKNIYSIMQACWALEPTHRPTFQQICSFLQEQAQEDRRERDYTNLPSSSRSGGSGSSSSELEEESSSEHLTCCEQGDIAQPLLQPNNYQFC
Method: (§2) As such, the compounds prepared in Examples were tested for inhibitory activity against FMS, DDR1 and DDR2 kinases using Kinase Screening and Profiling Service (Invitrogen, U.S.).

DDR1 = DDR1 (Homo sapiens (Human), UniProt Q08345); assay: DDR1 kinase activity, Kinase Screening and Profiling Service (Invitrogen); type: biochemical
Chain of DDR1 (Q08345 19-913): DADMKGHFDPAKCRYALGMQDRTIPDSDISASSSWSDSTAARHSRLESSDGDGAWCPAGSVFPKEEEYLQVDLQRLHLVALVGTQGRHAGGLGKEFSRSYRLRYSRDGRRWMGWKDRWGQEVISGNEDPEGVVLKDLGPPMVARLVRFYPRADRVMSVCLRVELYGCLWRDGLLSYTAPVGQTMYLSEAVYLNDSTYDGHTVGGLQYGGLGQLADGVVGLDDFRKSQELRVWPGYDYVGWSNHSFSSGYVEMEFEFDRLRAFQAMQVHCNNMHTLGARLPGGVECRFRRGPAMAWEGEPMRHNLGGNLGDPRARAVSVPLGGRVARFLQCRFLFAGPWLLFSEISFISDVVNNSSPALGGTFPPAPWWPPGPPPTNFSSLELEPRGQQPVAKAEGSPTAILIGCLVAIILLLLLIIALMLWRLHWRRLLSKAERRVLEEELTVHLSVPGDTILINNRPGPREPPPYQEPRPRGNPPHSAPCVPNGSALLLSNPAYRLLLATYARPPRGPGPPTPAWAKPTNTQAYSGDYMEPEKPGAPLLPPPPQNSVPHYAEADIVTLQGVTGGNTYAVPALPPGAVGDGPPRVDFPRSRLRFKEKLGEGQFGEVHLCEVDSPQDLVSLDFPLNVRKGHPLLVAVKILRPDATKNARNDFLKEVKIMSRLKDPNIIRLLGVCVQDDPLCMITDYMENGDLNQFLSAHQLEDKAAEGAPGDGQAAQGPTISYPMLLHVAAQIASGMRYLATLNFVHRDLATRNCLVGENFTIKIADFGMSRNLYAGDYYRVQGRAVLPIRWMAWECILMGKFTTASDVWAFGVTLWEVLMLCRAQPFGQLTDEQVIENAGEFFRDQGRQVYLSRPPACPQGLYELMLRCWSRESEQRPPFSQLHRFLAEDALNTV
Method: as §2

DDR2 = DDR2 (Homo sapiens (Human), UniProt Q16832); assay: DDR2 kinase activity, Kinase Screening and Profiling Service (Invitrogen); type: biochemical
Chain of DDR2 (Q16832 22-855): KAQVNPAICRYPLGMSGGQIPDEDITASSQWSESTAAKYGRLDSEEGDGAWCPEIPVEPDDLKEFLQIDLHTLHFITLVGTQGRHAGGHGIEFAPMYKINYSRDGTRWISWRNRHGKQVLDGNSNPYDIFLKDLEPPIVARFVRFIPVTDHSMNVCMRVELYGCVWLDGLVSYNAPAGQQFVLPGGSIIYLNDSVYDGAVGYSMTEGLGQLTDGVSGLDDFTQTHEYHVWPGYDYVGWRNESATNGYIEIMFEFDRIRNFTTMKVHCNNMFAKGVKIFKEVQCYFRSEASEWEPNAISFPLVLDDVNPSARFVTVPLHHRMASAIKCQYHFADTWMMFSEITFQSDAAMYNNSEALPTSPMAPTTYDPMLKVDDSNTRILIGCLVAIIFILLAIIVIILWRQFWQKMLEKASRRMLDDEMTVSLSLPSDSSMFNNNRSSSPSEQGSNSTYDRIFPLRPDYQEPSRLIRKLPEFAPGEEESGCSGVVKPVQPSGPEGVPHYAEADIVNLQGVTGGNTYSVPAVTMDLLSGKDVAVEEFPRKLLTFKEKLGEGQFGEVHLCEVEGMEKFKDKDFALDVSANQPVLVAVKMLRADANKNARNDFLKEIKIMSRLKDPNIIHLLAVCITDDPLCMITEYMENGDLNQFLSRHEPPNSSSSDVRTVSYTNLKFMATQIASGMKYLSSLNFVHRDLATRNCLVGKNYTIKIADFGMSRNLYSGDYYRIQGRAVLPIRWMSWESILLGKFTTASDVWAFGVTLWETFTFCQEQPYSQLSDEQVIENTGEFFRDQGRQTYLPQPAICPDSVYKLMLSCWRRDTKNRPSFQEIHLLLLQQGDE
Method: as §2

[1] = system: HepG2 cells (N-RAS mutant hepatoma carcinoma cell); assay: Inhibition on cell growth of N-RAS mutant cell HepG2 (SRB); type: cell-based; conditions: Homo sapiens, 72 hours, SRB staining, described as GI50 in the method
Method: N-RAS mutant cells HepG2 cells (HCC) cell lines (ATCC # HB-8065™), were obtained from ATCC (American Type Culture Collection: Rockville, Md.). HepG2 cell lines were incubated in a MEM medium supplemented with 10% FBS and 1% penicillin/streptomycin (Gibco BRL) under 37° C., 5% CO2 and 95% air. The cell lines were transferred into 96-well plates at a density of 5,000 cells/well, and cultured for 18 hours or more. The cell lines were treated with […]˜0.1 nM of test compounds, and cultured for 72 hours.
(§3) To evaluate cell viabilities, HepG2 cell lines were fixed with 10% TCA (trichloroacetic acid), stained with SRB (sulfohodamine B), and an absorbance was measured at 540 nm. Then, GI50, i.e., the concentration of drug to cause 50% reduction in proliferation of cancer cells, were calculated therefrom. The growth rates of cancer cells were calculated by Equation 1 or 2. [(Ti−Tz)/(C−Tz)]×100 (for Ti>=Tz) [Equation 1] [(Ti−Tz/Tz)×100 (for Ti<Tz) [Equation 2]
(§4) In Equations 1 and 2, ‘Tz’ refers to a density of untreated cells, which is an absorbance in 0% cell growth groups. ‘C’ refers to a density of cells cultured by adding only medium, and ‘Ti’ refers to a density of cells treated with test compounds.
GI50 value is the concentration of test compound when the value of Equation 1 is 50, which indicates the concentration of test compound needed to reduce the growth of cancer cells to 50%. On each measurement, test compounds were compared with a control.

[2] = system: SK-Mel-2 cells (N-RAS mutant melanoma); assay: Inhibition on cell growth of N-RAS mutant cell SK-Mel-2 (SRB); type: cell-based; conditions: Homo sapiens, 72 hours, SRB staining, described as GI50 in the method
Method: N-RAS mutant cells, SK-Mel-2 cell lines (ATCC #HTB-68™), were obtained from ATCC (American Type Culture Collection: Rockville, Md.). SK-Mel-2 cell lines were incubated in a MEM medium supplemented with 10% FBS and 1% penicillin/streptomycin (Gibco BRL) under 37° C., 5% CO2 and 95% air. The cell lines were transferred into 96-well plates at a density of 5,000 cells/well, and cultured for 18 hours or more. The cells were treated with […]˜0.1 nM of test compounds, and cultured for 72 hours.
as §3, with “SK-Mel-2” for “HepG2”
as §4
GI50 value is the concentration of a test compound when the value of Equation 1 is 50, which indicates the concentration of test compound needed to reduce the growth of cancer cells to 50%. On each measurement, test compounds were compared with a control.

Chain of B-RAF normal type (P15056 whole entry): as the sequence (P15056 whole entry V600E) above, with E600V counted along it

Row | SMILES | IC50 (B-RAF normal type) | IC50 (B-RAF^V600E) | IC50 (RAF1 Y340D Y341D (C-RAF)) | IC50 (FMS) | IC50 (DDR1) | IC50 (DDR2) | IC50 [1] | IC50 [2]
1 | Cc1ccc2c(Nc3cccc(Cl)c3F)nccc2c1NC(=O)c1csc2c(N)ncnc12 [Example 116, 4-amino-N-(1-((3-chloro-2-fluorophenyl)amino)-6-methylisoquinolin-5-yl)thieno[3,2-d]pyrimidine-7-carboxamide] | 56 nM | 7 nM | 5 nM | 10 nM | 23 nM | 44 nM | 38 nM | 76 nM
2 | Cc1ccc2c(Nc3cccc(Cl)c3)nccc2c1NC(=O)c1csc2c(N)ncnc12 [Example 38, 4-amino-N-(1-((3-chlorophenyl)amino)-6-methylisoquinolin-5-yl)thieno[3,2-d]pyrimidine-7-carboxamide] | – | – | – | – | – | – | 41 nM | 97 nM
3 | CCCS(=O)(=O)Nc1ccc(F)c(C(=O)c2c[nH]c3ncc(-c4ccc(Cl)cc4)cc23)c1F [Control, Vemurafenib, reference compound] | – | – | – | > 1000 nM | > 1000 nM | > 1000 nM | > 1000 nM | > 1000 nM
4 | Cc1ccc2c(Nc3ccc(OC(F)F)cc3)nccc2c1NC(=O)c1csc2c(N)ncnc12 [Example 50, 4-amino-N-(1-((4-(difluoromethoxy)phenyl)amino)-6-methylisoquinolin-5-yl)thieno[3,2-d]pyrimidine-7-carboxamide] | 128 nM | 26 nM | 32 nM | – | – | – | 44 nM | 163 nM
5 | CC(=O)c1ccc(Nc2nccc3c(NC(=O)c4csc5c(N)ncnc45)c(C)ccc23)cc1 [Example 83, N-(1-((4-acetylphenyl)amino)-6-methylisoquinolin-5-yl)-4-aminothieno[3,2-d]pyrimidine-7-carboxamide] | 12 nM | 5 nM | 7 nM | 4 nM | 5 nM | 10 nM | 30 nM | 60 nM
6 | Cc1ccc2c(Nc3ccc(Cl)c(CN(C)C)c3)nccc2c1NC(=O)c1csc2c(N)ncnc12 [Example 59, 4-amino-N-(1-((4-chloro-3-((dimethylamino)methyl)phenyl)amino)-6-methylisoquinolin-5-yl)thieno[3,2-d]pyrimidine-7-carboxamide] | 42 nM | 7 nM | 6 nM | – | – | – | 47 nM | 236 nM
7 | COc1ccc(Nc2nccc3c(NC(=O)c4csc5c(N)ncnc45)c(C)ccc23)cc1 [Example 16, 4-amino-N-(1-((4-methoxyphenyl)amino)-6-methylisoquinolin-5-yl)thieno[3,2-d]pyrimidine-7-carboxamide] | 15 nM | 32 nM | 5 nM | – | – | – | 24 nM | 52 nM
8 | Cc1ccc2c(Nc3ccc(Cl)cc3)nccc2c1NC(=O)c1csc2c(N)ncnc12 [Example 1, 4-amino-N-(1-((4-chlorophenyl)amino)-6-methylisoquinolin-5-yl)thieno[3,2-d]pyrimidine-7-carboxamide] | 121 nM | 22 nM | 23 nM | 1 nM | 2 nM | 5 nM | 27 nM | 56 nM
9 | Cc1ccc2c(Nc3ccc(F)c(Cl)c3)nccc2c1NC(=O)c1csc2c(N)ncnc12 [Example 105, 4-amino-N-(1-((3-chloro-4-fluorophenyl)amino)-6-methylisoquinolin-5-yl)thieno[3,2-d]pyrimidine-7-carboxamide] | 179 nM | 31 nM | 15 nM | 50 nM | 71 nM | 181 nM | 90 nM | 210 nM
